Measured values published in ChEMBL document CHEMBL4622844, “Inhibition of bacterial growth and galactosyltransferase activity of WbwC by α, ω-bis(3-alkyl-1H-imidazolium)alkane salts: Effect of varying carbon content” (Bioorg Med Chem, 2020).
Active and inactive are the calls of the source. The rule behind the calls is not given here.

Assays:
[1] = biological target: T1, Beta-1,4-galactosyltransferase 1 (Bos taurus) (UniProt P08037); assay: Inhibition of bovine milk Beta-1,4-galactosyltransferase at 0.5 mM in presence of UDP-[3H]Gal and GlcNAc-beta-Bn after 1 hr by scintillation counting method
T1 sequence (whole entry): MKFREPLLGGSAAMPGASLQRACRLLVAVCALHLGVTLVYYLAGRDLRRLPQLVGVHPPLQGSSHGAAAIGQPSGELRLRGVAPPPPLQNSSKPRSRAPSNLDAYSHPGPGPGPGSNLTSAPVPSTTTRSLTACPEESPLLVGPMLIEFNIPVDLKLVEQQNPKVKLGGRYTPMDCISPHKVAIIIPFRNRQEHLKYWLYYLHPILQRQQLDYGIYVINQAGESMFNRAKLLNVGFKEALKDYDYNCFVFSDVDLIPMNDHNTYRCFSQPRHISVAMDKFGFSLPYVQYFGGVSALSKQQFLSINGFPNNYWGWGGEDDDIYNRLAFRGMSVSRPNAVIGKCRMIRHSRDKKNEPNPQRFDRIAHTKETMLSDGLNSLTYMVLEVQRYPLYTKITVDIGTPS

Pseudomonas aeruginosa [2] = assay: Antimicrobial activity against Pseudomonas aeruginosa PAO1 assessed as inhibition of colony formation at 50 uM preincubated for 4 hrs and measured after overnight incubation by CFU assay; type: functional
[3] = Growth inhibition of human OC-3-VGH cells at 1 mM after 24 hrs by MTT assay; type: cell-based; conditions: read-out: GI
Escherichia coli [4] = assay: Inhibition of recombinant Escherichia coli O104:H4 Beta-1,3-galactosyltransferase WbwC expressed in Escherichia coli BL21 at 0.5 mM in presence of UDP-[3H]Gal and GalNAC-PO3-PO3-(CH2)11-O-phenyl after 1 hr by scintillation counting method relative to control
[5] = Inhibition of recombinant Escherichia coli O104:H4 Beta-1,3-galactosyltransferase WbwC expressed in Escherichia coli BL21 in presence of UDP-[3H]Gal and GalNAC-PO3-PO3-(CH2)11-O-phenyl after 1 hr by scintillation counting method
OC-3-VGH [6] = assay: Growth inhibition of human OC-3-VGH cells at 50 uM after 24 hrs by MTT assay; type: cell-based
A549 [7] = assay: Growth inhibition of human A549 cells at 50 uM after 24 hrs by MTT assay; type: cell-based; conditions: a549, 24 h
AD293 [8] = assay: Growth inhibition of human AD293 cells at 50 uM after 24 hrs by MTT assay; type: cell-based; conditions: ad293, 24 h
[9] = Growth inhibition of human OC-3-VGH cells at 0.5 mM after 24 hrs by MTT assay; type: cell-based; conditions: read-out: GI
OC-3-VGH [10] = assay: Growth inhibition of human OC-3-VGH cells after 24 hrs by MTT assay; type: cell-based
PC-3 [11] = assay: Growth inhibition of human PC3 cells at 0.5 mM after 24 hrs by MTT assay; type: cell-based; conditions: pc-3, 24 h, 500 µM
PC-3 [12] = assay: Growth inhibition of human PC3 cells after 24 hrs by MTT assay; type: cell-based; conditions: pc-3, 24 h
A549 [13] = assay: Growth inhibition of human A549 cells at 0.5 mM after 24 hrs by MTT assay; type: cell-based; conditions: a549, 24 h, 500 µM
A549 [14] = assay: Growth inhibition of human A549 cells after 24 hrs by MTT assay; type: cell-based; conditions: a549, 24 h
AD293 [15] = assay: Growth inhibition of human AD293 cells at 0.5 mM after 24 hrs by MTT assay; type: cell-based; conditions: ad293, 24 h, 500 µM
AD293 [16] = assay: Growth inhibition of human AD293 cells after 24 hrs by MTT assay; type: cell-based; conditions: ad293, 24 h
OC-3-VGH [17] = assay: Inhibition of cell migration in human OC-3-VGH cells at 500 uM incubated for 18 hrs by scratch wound healing assay; type: cell-based
Escherichia coli [18] = assay: Antimicrobial activity against Escherichia coli BL21 assessed as inhibition of colony formation at 5 uM preincubated for 4 hrs and measured after overnight incubation by CFU assay; type: functional
Pseudomonas aeruginosa [19] = assay: Antimicrobial activity against Pseudomonas aeruginosa PAO1 assessed as inhibition of colony formation at 5 uM preincubated for 4 hrs and measured after overnight incubation by CFU assay; type: functional
Bacillus subtilis [20] = assay: Antimicrobial activity against Bacillus subtilis assessed as inhibition of colony formation at 5 uM preincubated for 4 hrs and measured after overnight incubation by CFU assay; type: functional
[21] = tested on: Staphylococcus epidermidis; assay: Antimicrobial activity against Staphylococcus epidermidis assessed as inhibition of colony formation at 5 uM preincubated for 4 hrs and measured after overnight incubation by CFU assay; type: functional
Escherichia coli [22] = assay: Antimicrobial activity against Escherichia coli BL21 assessed as inhibition of colony formation at 10 uM preincubated for 4 hrs and measured after overnight incubation by CFU assay; type: functional
Escherichia coli [23] = assay: Antimicrobial activity against Escherichia coli BL21 assessed as inhibition of colony formation at 25 uM preincubated for 4 hrs and measured after overnight incubation by CFU assay; type: functional
Pseudomonas aeruginosa [24] = assay: Antimicrobial activity against Pseudomonas aeruginosa PAO1 assessed as inhibition of colony formation at 10 uM preincubated for 4 hrs and measured after overnight incubation by CFU assay; type: functional
Pseudomonas aeruginosa [25] = assay: Antimicrobial activity against Pseudomonas aeruginosa PAO1 assessed as inhibition of colony formation at 25 uM preincubated for 4 hrs and measured after overnight incubation by CFU assay; type: functional
Bacillus subtilis [26] = assay: Antimicrobial activity against Bacillus subtilis assessed as inhibition of colony formation at 10 uM preincubated for 4 hrs and measured after overnight incubation by CFU assay; type: functional
Bacillus subtilis [27] = assay: Antimicrobial activity against Bacillus subtilis assessed as inhibition of colony formation at 25 uM preincubated for 4 hrs and measured after overnight incubation by CFU assay; type: functional
[28] = tested on: Staphylococcus epidermidis; assay: Antimicrobial activity against Staphylococcus epidermidis assessed as inhibition of colony formation at 10 uM preincubated for 4 hrs and measured after overnight incubation by CFU assay; type: functional
[29] = tested on: Staphylococcus epidermidis; assay: Antimicrobial activity against Staphylococcus epidermidis assessed as inhibition of colony formation at 25 uM preincubated for 4 hrs and measured after overnight incubation by CFU assay; type: functional

**Q.** Which inhibition [1] does the source give for `CCCC(=O)N[C@@H]1[C@@H](O)[C@H](O)[C@@H](CO)O[C@H]1Sc1ccc2ccccc2c1` here?
**A.** Its inhibition is “inactive”.

**Q.** And the inhibition (Pseudomonas aeruginosa [2])?
**A.** The inhibition was “inactive”.

**Q.** What about the inhibition at 24 h, 1000 µM [3] of the same compound?
**A.** Its inhibition at 24 h, 1000 µM is 50%.

**Q.** For `CCCCCCCCC[n+]1ccn(CCCCCCCCCCn2cc[n+](CCCCCCCCC)c2)c1`, which inhibition (Escherichia coli [4]) is on record?
**A.** Its inhibition is 95%.

**Q.** And the IC50 [5]?
**A.** The IC50 was 23 µM.

**Q.** What about the inhibition [1] of the same compound?
**A.** The inhibition was “Active”.

**Q.** For `CCCCCCCC[n+]1ccn(CCCCCCn2cc[n+](CCCCCCCC)c2)c1`, which inhibition (Escherichia coli [4]) is on record?
**A.** Its inhibition is 13%.

**Q.** With `CCCCCCCCCC[n+]1ccn(CCCCCCCCCCCCCCCCn2cc[n+](CCCCCCCCCC)c2)c1` as the compound, how does the inhibition (Escherichia coli [4]) read?
**A.** Its inhibition is 92%.

**Q.** And the IC50 [5]?
**A.** The IC50 was 147 µM.

**Q.** Which results are given for `CCCCCCCCCCC[n+]1ccn(CCCCCCCCCCn2cc[n+](CCCCCCCCCCC)c2)c1`?
**A.** inhibition (Escherichia coli [4]): 98%; IC50 [5]: 62 µM

**Q.** What does the source list for `c1cn(CCCCCCCCCCCCCCCCCCn2ccnc2)cn1`?
**A.** growth inhibition (GI) (OC-3-VGH [6]): Non-Toxic; growth inhibition (GI) (A549 [7]): Non-Toxic; growth inhibition (GI) (AD293 [8]): Non-Toxic

**Q.** Which inhibition (Escherichia coli [4]) does the source give for `CS(=O)(=O)[O-].CS(=O)(=O)[O-].C[n+]1ccn(CCCCCCCCCCCCCCCCCCCCn2cc[n+](C)c2)c1` here?
**A.** The inhibition was 91%.

**Q.** What about the IC50 [5] of the same compound?
**A.** Its IC50 is 230 µM.

**Q.** What about the inhibition at 50 µM (Pseudomonas aeruginosa [2]) of the same compound?
**A.** Its inhibition at 50 µM is > 90%.

**Q.** What about the inhibition at 24 h, 500 µM [9] of the same compound?
**A.** Its inhibition at 24 h, 500 µM is 80%.

**Q.** And the IC50 (OC-3-VGH [10])?
**A.** The IC50 was 5 to 12 µM.

**Q.** What about the “growth inhibition (GI)” value (PC-3 [11]) of the same compound?
**A.** Its value is “Toxic”.

**Q.** What about the “growth inhibition (GI)” value (PC-3 [12]) of the same compound?
**A.** Its value is “Toxic”.

**Q.** What about the “growth inhibition (GI)” value (A549 [13]) of the same compound?
**A.** The value was “Toxic”.

**Q.** And the “growth inhibition (GI)” value (A549 [14])?
**A.** The value was “Toxic”.

**Q.** And the “growth inhibition (GI)” value (AD293 [15])?
**A.** Its value is “Toxic”.

**Q.** What about the “growth inhibition (GI)” value (AD293 [16]) of the same compound?
**A.** The value was “Toxic”.

**Q.** And the “inhibition (INH)” value (OC-3-VGH [17])?
**A.** Its value is “Active”.

**Q.** Which results are given for `CCCCCCCCCCC[n+]1ccn(CCCCCCCCCCCCCCCCn2cc[n+](CCCCCCCCCCC)c2)c1`?
**A.** inhibition (Escherichia coli [4]): 92%; IC50 [5]: 123 µM; inhibition at 5 µM (Escherichia coli [18]): 100%; inhibition at 5 µM (Pseudomonas aeruginosa [19]): 28%; inhibition at 5 µM (Bacillus subtilis [20]): 100%; inhibition at 5 µM [21]: 100%; inhibition at 10 µM (Escherichia coli [22]): 100%; inhibition at 25 µM (Escherichia coli [23]): 100%; inhibition at 10 µM (Pseudomonas aeruginosa [24]): 77%; inhibition at 25 µM (Pseudomonas aeruginosa [25]): 100%; inhibition at 10 µM (Bacillus subtilis [26]): 100%; inhibition at 25 µM (Bacillus subtilis [27]): 100%; inhibition at 10 µM [28]: 100%; inhibition at 25 µM [29]: 100%

**Q.** With `C[n+]1ccn(CCCCCCCCCCCCCCCn2cc[n+](C)c2)c1` as the compound, how does the inhibition (Escherichia coli [4]) read?
**A.** Its inhibition is 11%.

**Q.** With `CCCCCCCCC[n+]1ccn(CCCCCCn2cc[n+](CCCCCCCCC)c2)c1` as the compound, how does the inhibition (Escherichia coli [4]) read?
**A.** The inhibition was < 10%.

**Q.** Which inhibition (Escherichia coli [4]) does the source give for `CCCCCC[n+]1ccn(CCCCCCCCCCCCCCCCn2cc[n+](CCCCCC)c2)c1` here?
**A.** The inhibition was 88%.

**Q.** What about the IC50 [5] of the same compound?
**A.** The IC50 was 48 µM.

**Q.** And the inhibition [1]?
**A.** Its inhibition is “Active”.

**Q.** For `C[n+]1ccn(CCCCCCCCn2cc[n+](C)c2)c1`, which inhibition (Escherichia coli [4]) is on record?
**A.** The inhibition was 21%.

**Q.** For `CCCCCCC[n+]1ccn(CCCCCCCCCCCCCCCCn2cc[n+](CCCCCCC)c2)c1`, which inhibition (Escherichia coli [4]) is on record?
**A.** Its inhibition is 95%.

**Q.** What about the IC50 [5] of the same compound?
**A.** Its IC50 is 11 µM.

**Q.** With `CCCCCCCCCCCC[n+]1ccn(CCCCCCCCCCCCCCCCn2cc[n+](CCCCCCCCCCCC)c2)c1` as the compound, how does the inhibition (Escherichia coli [4]) read?
**A.** Its inhibition is 92%.

**Q.** What about the IC50 [5] of the same compound?
**A.** Its IC50 is 121 µM.

**Q.** What about the inhibition [1] of the same compound?
**A.** The inhibition was “Active”.

**Q.** What does the source list for `C[n+]1ccn(CCCCCCCCCCCCCCn2cc[n+](C)c2)c1`?
**A.** inhibition (Escherichia coli [4]): 10%; inhibition at 5 µM (Escherichia coli [18]): 0%; inhibition at 5 µM (Pseudomonas aeruginosa [19]): 0%; inhibition at 5 µM (Bacillus subtilis [20]): 8%; inhibition at 5 µM [21]: 0%; inhibition at 10 µM (Escherichia coli [22]): 32%; inhibition at 25 µM (Escherichia coli [23]): 51%; inhibition at 10 µM (Pseudomonas aeruginosa [24]): 4%; inhibition at 25 µM (Pseudomonas aeruginosa [25]): 22%; inhibition at 10 µM (Bacillus subtilis [26]): 20%; inhibition at 25 µM (Bacillus subtilis [27]): 51%; inhibition at 10 µM [28]: 0%; inhibition at 25 µM [29]: 0%

**Q.** What does the source list for `CCCCCCCC[n+]1ccn(CCCCCCCCCCn2cc[n+](CCCCCCCC)c2)c1`?
**A.** inhibition (Escherichia coli [4]): 64%; IC50 [5]: 123 µM; inhibition at 5 µM (Escherichia coli [18]): 100%; inhibition at 5 µM (Pseudomonas aeruginosa [19]): 96%; inhibition at 5 µM (Bacillus subtilis [20]): 100%; inhibition at 5 µM [21]: 100%; inhibition at 10 µM (Escherichia coli [22]): 100%; inhibition at 25 µM (Escherichia coli [23]): 100%; inhibition at 10 µM (Pseudomonas aeruginosa [24]): 100%; inhibition at 25 µM (Pseudomonas aeruginosa [25]): 100%; inhibition at 10 µM (Bacillus subtilis [26]): 100%; inhibition at 25 µM (Bacillus subtilis [27]): 100%; inhibition at 10 µM [28]: 100%; inhibition at 25 µM [29]: 100%

**Q.** What does the source list for `c1cn(CCCCCCCCCCCCCCCCn2ccnc2)cn1`?
**A.** growth inhibition (GI) (OC-3-VGH [6]): Non-Toxic; growth inhibition (GI) (A549 [7]): Non-Toxic; growth inhibition (GI) (AD293 [8]): Non-Toxic
